# Reference: US12110496B2, “Method of determining the zygosity of event MON 88302” (priority 2010, dated 2024)
# Experiments:
# [1] = tested on: canola comprising event MON 88302 (Ebony germplasm); assay: Field trial of glyphosate tolerance, MON 88302 event (crop injury, maturity, seed moisture, yield); type: in vivo, Brassica napus; conditions: for 7-10 DAT % CHLR Avg / 14-21 DAT % GR Avg: MON88302
# Source text: (§1) The current registered glyphosate rate for the Genuity™ Roundup Ready® Canola system (event RT73) is a single application of 675 g ae/ha or two 450 g ae/ha applications up to the six leaf stage of the canola crop. RT73 was compared with the MON 88302 event at multiple single application rates of glyphosate. Applications were made from post emergence to the first flower of the canola crop. The Genuity™ Roundup Ready® Canola system (RT73 event) was represented by the commercial open pollinated variety 34-65, and event MON88302 was transformed into the Ebony germplasm.
# (§2) Eight trials were established with six taken to harvest (one site was lost to drought and one site was lost to hail, and data from one harvested site was not used due to the coefficient of variation (CV) exceeding the predetermined cut-off value). Standard canola growing practices were utilized throughout the season to optimize plant growth. Pre-emergent and post-emergent conventional herbicides and seed treatment containing fungicide and insecticide were used to minimize pest pressure. Trials were set up as a split block design with Genuity™ Roundup Ready® Canola (RT73 event) or MON 88302 systems blocked and herbicide rates randomized within the block. Plots were two by six meters and replicated three times. Plots were sprayed with handheld boom sprayers at 100-110 l/ha application rate at the appropriate crop stage. The Canadian formulation of Roundup WeatherMAX® (540 g/L) was used as the glyphosate product. The four to six leaf stage was defined as four to six true leaves on the main stem, and first flower was when 50% of the plants had at least one flower. Percent chlorosis (% CHLR) was recorded seven to ten days after herbicide application (DAT or days after treatment). Percent chlorosis is a visual estimate of the amount of yellowing on the leaves of plants as a result of herbicide treatment compared to the untreated check on a 1 to 100 scale. Percent growth reduction (% GR) was recorded 14-21 days after herbicide application (DAT). Percent growth reduction is a visual evaluation used to describe plant growth reduction consisting of, but not limited to, reduced height and/or quantity of foliage for the treated area. The evaluation pertains only to the above ground portion of the plant. Percent growth reduction is compared to the non-treated check and is rated on a 1 to 100 scale. Maturity was recorded as days after planting to when 30% of the seeds on the main raceme are brown/black in color. Percent seed moisture was recorded electronically during harvesting. All plots were swathed and then allowed to dry until seed moisture was low enough to facilitate harvesting. Weight and seed moisture was recorded electronically during harvesting and converted to bushels/acre at 10% seed moisture. Each location was analyzed individually and averages across locations were analyzed using statistical software. Data were screened for outliers using the standard two-pass procedure based on deleted studentized residuals using a False Discovery Rate (FDR) adjustment for an experiment-wise Type I error rate of 5% at each location. Outliers were removed prior to analysis. The standard analysis of variance for a split-plot design was performed by mixed model with restricted maximum likelihood estimation-variety and herbicide treatments were treated as fixed effects, replications and locations were random effects. Least-squares means were calculated for each variety and each treatment, and t-tests with comparison-wise error rates of 5% were used to determine the significance between variety and control at each herbicide treatment level on canola growth characteristics. Crop injury, maturity, and yield were measured to assess benefits.
# [2] = tested on: canola comprising event RT73 (Genuity Roundup Ready Canola, variety 34-65); assay: Field trial of glyphosate tolerance, RT73 event (crop injury, maturity, seed moisture, yield); type: in vivo, Brassica napus
# Source text: as §1, §2
# [3] = tested on: Brassica napus events from construct 2; assay: First year efficacy field trials, construct 2 events; type: in vivo
# Description: The 25 events were also evaluated in first year field testing for efficacy located at the same testing site as the agronomy field trials. Efficacy field trials were initiated to evaluate the vegetative and reproductive tolerance of the events to sequential applications of glyphosate at various application timings and rates. The 16 R2 events from construct 1 were evaluated at 5 locations. The 3 R2 events from construct 2, the 3 R2 events from construct 4, and the 3 R2 events from construct 5 were evaluated at 4 locations. Each study contained the positive isoline of each event and two commercial varieties. […]
# Events were evaluated for vegetative and reproductive tolerance to either a single application of 1.6 lb AE/A or two sequential applications of 0.8 lb AE/A when applied from crop emergence up to first flower. […]
# (§3) Data Collection was performed as above. Glyphosate injury was assessed as follows. […] Vegetative injury was rated after the first glyphosate application while reproductive percent chlorosis/necrosis was evaluated after the second application using a scale ranging from 0% (no injury) to 100% (plant death). Growth reduction was evaluated at 14 to 21 days after each application using a scale ranging from 0 to 100%. Vegetative growth reduction was evaluated after the first application while reproductive growth reduction was determined after the sequential application. […]
# [4] = tested on: Brassica napus events from construct 1; assay: First year efficacy field trials, construct 1 events; type: in vivo
# Description: The 25 events were also evaluated in first year field testing for efficacy located at the same testing site as the agronomy field trials. Efficacy field trials were initiated to evaluate the vegetative and reproductive tolerance of the events to sequential applications of glyphosate at various application timings and rates. The 16 R2 events from construct 1 were evaluated at 5 locations. The 3 R2 events from construct 2, the 3 R2 events from construct 4, and the 3 R2 events from construct 5 were evaluated at 4 locations. Each study contained the positive isoline of each event and two commercial varieties. A split plot design with 3 replications was used with herbicide treatments as whole plots and event entries as subplots. A non-sprayed treatment was included for comparison.
# Events were evaluated for vegetative and reproductive tolerance to either a single application of 1.6 lb AE/A or two sequential applications of 0.8 lb AE/A when applied from crop emergence up to first flower. Roundup WeatherMAX® was applied at three different rates that were equivalent to 2×, 4×, and 8× of the single application rate (Table 2). The initial application was made at the four leaf stage followed by a second application at the prebolt stage. […]
# as §3, with “application. Least-squares means were calculated for each combination of glyphosate level and event, and t-tests were used to determine the significance of the effects of glyphosate on event tolerance.” for “application.”
# [5] = glyphosate 450 g ae/ha at 1st flower
# [6] = glyphosate 450 g ae/ha at 4-6 leaf
# [7] = glyphosate 900 g ae/ha at 1st flower
# [8] = glyphosate 900 g ae/ha at 4-6 leaf
# [9] = glyphosate 1800 g ae/ha at 1st flower
# [10] = glyphosate 3600 g ae/ha at 1st flower
# [11] = glyphosate 3600 g ae/ha at 4-6 leaf
# [12] = glyphosate 11800 g ae/ha at 4-6 leaf
# [13] = glyphosate 1800 g ae/ha at 4-6 leaf
structure (smiles),measurement,setting,value
"O=C(O)CNCP(=O)(O)O [glyphosate, N-phosphonomethyl-glycine]",7-10 DAT % CHLR Avg,[1]; [5],0.0%
same,14-21 DAT % GR Avg,[1]; [5],0.0%
same,7-10 DAT % CHLR Avg,[1]; [6],0.0%
same,14-21 DAT % GR Avg,[1]; [6],0.3%
same,7-10 DAT % CHLR Avg,[1]; [7],0.3%
same,14-21 DAT % GR Avg,[1]; [7],0.8%
same,7-10 DAT % CHLR Avg,[1]; [8],0.7%
same,14-21 DAT % GR Avg,[1]; [8],0.7%
same,7-10 DAT % CHLR Avg,[1]; [9],0.9%
same,14-21 DAT % GR Avg,[1]; [9],0.0%
same,7-10 DAT % CHLR Avg,[1]; [10],4.7%
same,14-21 DAT % GR Avg,[1]; [10],1.1%
same,7-10 DAT % CHLR Avg,[1]; [11],1.7%
same,14-21 DAT % GR Avg,[1]; [11],0.3%
same,7-10 DAT % CHLR Avg,[1]; [12],1.7%
same,14-21 DAT % GR Avg,[1]; [12],no percent growth reduction
same,14-21 DAT % GR Avg,"[1]; glyphosate 11800 g ae/ha at 4-6 leaf, listed as Glyphosate",0.0%
same,yield reduction,"[1]; MON 88302 plants, 1800 g ae/ha and 2× at four to six leaf (FIG. 2)",No significant yield reductions
same,maturity,"[1]; MON 88302 plants, 1800 g ae/ha at four to six leaf",significant shortening of maturity
same,maturity,"[1]; MON 88302 plants, all rates except 1800 g ae/ha at four to six leaf",No delay in maturity
same,yield vs unsprayed,"[1]; MON 88302 plants, any rate or timing",No significant differences in yield
same,yield reduction,"[1]; MON 88302 plants, glyphosate rates at first flower (FIG. 3)",No significant yield reductions
same,yield reduction,[2]; 2× the proposed rate of 1800 g ae/ha at four to six leaf,30%
same,yield vs unsprayed,[2]; 1800 and 3600 g ae/ha at both stages and 900 g/ha at first flower,significant yield reduction
same,yield reduction,[2]; 1800 g ae/ha at four to six leaf,11.4%
same,maturity,[2]; 3600 g ae/ha at both four to six leaf and first flower,delayed significantly
same,yield reduction,[2]; all rates shown at first flower (FIG. 3),significant yield reduction
same,7-10 DAT % CHLR Avg,[2]; [5],0.6%
same,14-21 DAT % GR Avg,[2]; [5],0.8%
same,7-10 DAT % CHLR Avg,[2]; [6],0.3%
same,14-21 DAT % GR Avg,[2]; [6],0.9%
same,7-10 DAT % CHLR Avg,[2]; [7],1.8%
same,14-21 DAT % GR Avg,[2]; [7],0.3%
same,7-10 DAT % CHLR Avg,[2]; [8],2.2%
same,14-21 DAT % GR Avg,[2]; [8],1.3%
same,7-10 DAT % CHLR Avg,[2]; [9],6.7%
same,14-21 DAT % GR Avg,[2]; [9],3.3%
same,7-10 DAT % CHLR Avg,[2]; [13],4.7%
same,14-21 DAT % GR Avg,[2]; [13],5.3%
same,7-10 DAT % CHLR Avg,[2]; [10],10%
same,14-21 DAT % GR Avg,[2]; [10],8.1%
same,7-10 DAT % CHLR Avg,"[2]; glyphosate 3600 g ae/ha at 1st flower, listed as Glyphosate",10.0%
same,7-10 DAT % CHLR Avg,[2]; [11],10%
same,14-21 DAT % GR Avg,[2]; [11],20.8%
same,7-10 DAT % CHLR Avg,"[2]; glyphosate 3600 g ae/ha at 4-6 leaf, listed as Glyphosate",10.0%
same,yield,"[3]; all construct 2 events, regardless of application rate",significantly reduced the yield
same,injury,"[3]; construct 2 events, all glyphosate rates tested",Unacceptable levels of injury
same,vegetative injury,[4]; 2× product concept rate,very minor
same,yield,"[4]; regardless of rate, one event excepted at 6.4 lb AE/A followed by 6.4 lb AE/A",not negatively impacted
same,vegetative and reproductive tolerance to glyphosate,"[4]; sequential applications at four leaf and prebolt, 2×, 4×, 8× rates",excellent vegetative and reproductive tolerance
